Source: patent US9661848B2, “Substituted 4-cyan-3-(pyridyl)-4-phenylbutanoates, method for the production thereof and uses as herbicides and plant growth regulators” (BAYER CROPSCIENCE AG, priority 2012, dated 2017)

Columns and labels:
[1] = tested on: Alopecurus myosuroides; assay: Herbicidal post-emergence action; assay type: in vivo; conditions: post-emergence method; 0.32 kg of active substance per hectare
Procedure: (§1) Seeds of monocotyledonous and dicotyledonous weeds and crop plants were placed in sandy loam in wood-fibre pots, covered with soil and cultivated in a greenhouse under good growth conditions. 2 to 3 weeks after sowing, the test plants were treated at the one-leaf stage, where the compounds (I) according to the invention, formulated in the form of wettable powders (WP), were applied by spraying as aqueous suspension or emulsion at a water application rate of 600 l/ha (converted) with the addition of 0.2% of wetting agent to the green parts of the plants. After the test plants had been kept in the greenhouse under optimum growth conditions for about 3 weeks, the activity of the preparations was rated visually in comparison to untreated controls in per cent (%). For example, 100% activity=the plants have died, 50% herbicidal activity or damage=the plants have been reduced by 50% or the plant mass has been reduced by 50%, 0% activity=like control plants.

[2] = tested on: Avena fatua; assay: Herbicidal post-emergence action; assay type: in vivo; conditions: post-emergence method; 0.32 kg of active substance per hectare
Procedure: as §1

## COC(=O)C[C@@H](c1cncc(F)c1)[C@H](C#N)c1cccc(F)c1 [erythro-2-Ibb732]
[1]
  activity against Alopecurus myosuroides: 90-100%
[2]
  activity against Avena fatua: 90-100%
